# Active and inactive are the calls of the source. The calls are words filed in the database; no cut-off is given here.
# Legend:
# Staphylococcus aureus [1] = test: Antibacterial activity against Staphylococcus aureus ATCC 25923 assessed as inhibition of bacterial growth incubated for 14 hrs by two-fold serial dilution method; assay type: functional
# Staphylococcus aureus [2] = test: Antibacterial activity against Staphylococcus aureus CMCC 26003 assessed as inhibition of bacterial growth incubated for 14 hrs by two-fold serial dilution method; assay type: functional
# Staphylococcus aureus [3] = test: Antibacterial activity against methicillin-resistant Staphylococcus aureus clinical isolate M-13 incubated for 14 hrs by two-fold serial dilution method; assay type: functional
# Staphylococcus aureus [4] = test: Antibacterial activity against methicillin-resistant Staphylococcus aureus clinical isolate M-14 incubated for 14 hrs by two-fold serial dilution method; assay type: functional
# Staphylococcus aureus [5] = test: Antibacterial activity against methicillin-resistant Staphylococcus aureus clinical isolate M-19 incubated for 14 hrs by two-fold serial dilution method; assay type: functional
# Staphylococcus aureus [6] = test: Antibacterial activity against methicillin-resistant Staphylococcus aureus clinical isolate M-21 incubated for 14 hrs by two-fold serial dilution method; assay type: functional
# Staphylococcus aureus [7] = test: Antibacterial activity against methicillin-resistant Staphylococcus aureus clinical isolate M-22 incubated for 14 hrs by two-fold serial dilution method; assay type: functional
# Staphylococcus aureus [8] = test: Antibacterial activity against methicillin-resistant Staphylococcus aureus clinical isolate M-23 incubated for 14 hrs by two-fold serial dilution method; assay type: functional
# Staphylococcus aureus [9] = test: Antibacterial activity against Staphylococcus aureus ATCC 33591 assessed as inhibition of bacterial growth at 0.5 times MIC measured at 0 to 12 hrs by growth kinetic assay; assay type: functional, organism-based; conditions: time 0-12 hrs
# Staphylococcus aureus [10] = test: Antibacterial activity against Staphylococcus aureus ATCC 33591 assessed as log reduction in bacterial growth at 2 times MIC measured at 6 hrs by time-kill kinetic assay; assay type: functional
# Staphylococcus aureus [11] = test: Antibacterial activity against Staphylococcus aureus ATCC 33591 assessed as log reduction in bacterial growth at 4 times MIC measured at 6 hrs by time-kill kinetic assay; assay type: functional
# Staphylococcus aureus [12] = test: Antibacterial activity against Staphylococcus aureus ATCC 33591 assessed as resistance development by measuring fold increase in MIC at 0.5 times MIC incubated for 8 hrs and measured after 15 passages; assay type: functional
# L02 [13] = test: Cytotoxicity against human L02 cells assessed as reduction in cell viability at 0.25 ug/ml incubated for 24 hrs by CCK-8 assay relative to control; assay type: toxicity, cell-based; conditions: l02, 24 h, at 0.25 µg/mL
# L02 [14] = test: Cytotoxicity against human L02 cells assessed as reduction in cell viability at 4 ug/ml incubated for 24 hrs by CCK-8 assay relative to control; assay type: toxicity, cell-based; conditions: l02, 24 h, at 4 µg/mL
# [15] = Toxicity in female Kunming mouse assessed as abnormality inside skin at 5 to 20 mg/kg, sc measured after 48 hrs; assay type: organism-based; conditions: in vivo, dose 5-20 mg/kg
# [16] = Toxicity in female Kunming mouse assessed as pathological changes in skin tissue at 5 to 20 mg/kg, sc measured after 48 hrs by H and E staining based analysis; assay type: organism-based; conditions: in vivo, dose 5-20 mg/kg
# [17] = Acute toxicity in female Kunming mouse assessed as aberrant behavior at 500 to 2000 mg/kg, sc measured after 7 days; assay type: organism-based; conditions: in vivo, 168 h, dose 500-2000 mg/kg, time 7 day
# [18] = Acute toxicity in female Kunming mouse assessed as mortality at 500 to 2000 mg/kg, sc measured after 7 days; assay type: organism-based; conditions: in vivo, 168 h, dose 500-2000 mg/kg, time 7 day
# [19] = Toxicity in female Kunming mouse assessed as inflammatory response in kidney at 500 to 2000 mg/kg, sc measured after 7 days by H and E staining based analysis; assay type: organism-based; conditions: in vivo, 168 h, dose 500-2000 mg/kg, time 7 day
# Staphylococcus aureus [20] = test: In vivo antibacterial activity against methicillin-resistant Staphylococcus aureus infected in female Kunming mouse skin infection model assessed as log reduction in bacterial load at 5 mg/kg measured after 48 hrs (reference value: 14.34 log10CFU/g); assay type: functional
# Staphylococcus aureus [21] = test: In vivo antibacterial activity against methicillin-resistant Staphylococcus aureus infected in female Kunming mouse skin infection model assessed as log reduction in bacterial load at 20 mg/kg measured after 48 hrs (reference value: 14.34 log10CFU/g); assay type: functional
# Staphylococcus aureus [22] = test: In vivo antibacterial activity against methicillin-resistant Staphylococcus aureus infected in female Kunming mouse skin infection model assessed as appearance of smooth inside skin at 20 mg/kg measured after 48 hrs; assay type: functional, organism-based
# Staphylococcus aureus [23] = test: Antibiofilm activity against methicillin-resistant Staphylococcus aureus assessed as inhibition of biofilm formation at 2 ug/ml incubated for 24 hrs by crystal violet staining based analysis relative to control; assay type: functional; design: scale not given: the % may be the effect or the level left; conditions: dose 2 µg/ml
# Staphylococcus aureus [24] = test: Antibiofilm activity against methicillin-resistant Staphylococcus aureus assessed as inhibition of biofilm formation at 4 ug/ml incubated for 24 hrs by crystal violet staining based analysis relative to control; assay type: functional; design: scale not given: the % may be the effect or the level left; conditions: dose 4 µg/ml
# Staphylococcus aureus [25] = test: Antibiofilm activity against methicillin-resistant Staphylococcus aureus assessed as disruption of preformed biofilm at 0.25 to 16 ug/ml incubated for 24 hrs by crystal violet staining based analysis; assay type: functional, organism-based; conditions: dose 0.25-16 µg/ml
# Staphylococcus aureus [26] = test: Induction of morphological changes in methicillin-resistant Staphylococcus aureus assessed as appearance of broken cells at 0.5 ug/ml incubated for 6 hrs by SEM analysis; assay type: functional, organism-based; conditions: dose 0.5 µg/ml
# Staphylococcus aureus [27] = test: Induction of morphological changes in methicillin-resistant Staphylococcus aureus assessed as appearance of fragments at 0.5 ug/ml incubated for 6 hrs by SEM analysis; assay type: functional, organism-based; conditions: dose 0.5 µg/ml
# Staphylococcus aureus [28] = test: Induction of morphological changes in methicillin-resistant Staphylococcus aureus assessed as appearance of holes in cells at 0.5 ug/ml incubated for 6 hrs by SEM analysis; assay type: functional, organism-based; conditions: dose 0.5 µg/ml
# Staphylococcus aureus [29] = test: Antibacterial activity against methicillin-resistant Staphylococcus aureus assessed as reduction in bacterial growth by measuring fold increase in MIC in presence of 32 ug/ml peptidoglycan incubated for 0.5 hrs by exogenous addition assay; assay type: functional
# Cell membrane [30] = test: Induction of cytoplasmic membrane depolarization in methicillin-resistant Staphylococcus aureus assessed as increase in fluorescence intensity by DiSC35 dye based microplate reader analysis; assay type: subcellular
# Cell membrane [31] = test: Induction of cell membrane permeability in methicillin-resistant Staphylococcus aureus assessed as increase in nucleic acid leakage at 2 ug/ml incubated for 8 hrs; assay type: subcellular; conditions: dose 2.0 µg/ml
# Staphylococcus aureus [32] = test: Antibacterial activity against methicillin-resistant Staphylococcus aureus assessed as reduction in metabolic activity at 2 ug/ml incubated for 8 hrs by alamar blue staining based analysis relative to control; assay type: functional; design: scale not given: the % may be the effect or the level left; conditions: dose 2 µg/ml
# Staphylococcus aureus [33] = test: Antibacterial activity against methicillin-resistant Staphylococcus aureus assessed as reduction in LDH activity incubated for 8 hrs; assay type: functional, organism-based; conditions: dose 0.25-2 µg/ml
# Staphylococcus aureus [34] = test: Induction of ROS generation in methicillin-resistant Staphylococcus aureus assessed as fold increase in fluorescence intensity at 2 ug/ml incubated for 8 hrs by DCFH-DA dye analysis; assay type: functional; conditions: dose 2 µg/ml
# Staphylococcus aureus [35] = test: Induction of oxidative damage in methicillin-resistant Staphylococcus aureus assessed as loss of GSH activity incubated for 8 hrs; assay type: functional, organism-based; conditions: dose 0.25-2 µg/ml
# Staphylococcus aureus [36] = test: Induction of oxidative damage in methicillin-resistant Staphylococcus aureus assessed as reduction in SOD activity incubated for 8 hrs; assay type: functional, organism-based; conditions: dose 0.25-2 µg/ml
# Calf thymus DNA [37] = test: Binding affinity to calf thymus DNA assessed as change in enthalpy at 3 uM by ITC assay; assay type: nucleic-acid assay; conditions: Bos taurus
# Calf thymus DNA [38] = test: Binding affinity to calf thymus DNA assessed as change in entropy at 3 uM by ITC assay; assay type: nucleic-acid assay; conditions: Bos taurus
# Calf thymus DNA [39] = test: Binding affinity to calf thymus DNA assessed as binding constant by ITC assay; assay type: nucleic-acid assay; conditions: Bos taurus
# Staphylococcus aureus [40] = test: Antibacterial activity against methicillin-resistant Staphylococcus aureus assessed as increase MIC incubated for 6 hrs in presence of 70 to 100% sheep plasma; assay type: functional
compound,measurement,setting,value
C[n+]1ccc2c3ccccc3n(CCCCCCCCCCCn3c4ccccc4c4cc[n+](C)cc43)c2c1.[I-].[I-],MIC,Staphylococcus aureus [1],1 µg/mL
same,MIC,Staphylococcus aureus [2],0.25 µg/mL
same,MIC,Staphylococcus aureus [3],1 µg/mL
same,MIC,Staphylococcus aureus [4],0.25 µg/mL
same,MIC,Staphylococcus aureus [5],0.5 µg/mL
same,MIC,Staphylococcus aureus [6],1 µg/mL
same,MIC,Staphylococcus aureus [7],0.5 µg/mL
same,MIC,Staphylococcus aureus [8],0.5 µg/mL
same,Activity,Staphylococcus aureus [9],Active
same,Activity,Staphylococcus aureus [10],4.26 log10CFU/ml
same,Activity,Staphylococcus aureus [11],5.31 log10CFU/ml
same,fold change (FC),Staphylococcus aureus [12],2
same,Activity,L02 [13],97.25%
same,Activity,L02 [14],71.86%
same,Activity,[15],Non-toxic
same,Activity,[16],Non-toxic
same,Activity,[17],Non-toxic
same,Activity,[18],Non-toxic
same,Activity,[19],Non-toxic
same,Activity,Staphylococcus aureus [20],4.85 log10CFU/g
same,Activity,Staphylococcus aureus [21],7.29 log10CFU/g
same,Activity,Staphylococcus aureus [22],Active
same,Activity,Staphylococcus aureus [23],79%
same,Activity,Staphylococcus aureus [24],98%
same,Activity,Staphylococcus aureus [25],inactive
same,Activity,Staphylococcus aureus [26],Active
same,Activity,Staphylococcus aureus [27],Active
same,Activity,Staphylococcus aureus [28],Active
same,fold change (FC),Staphylococcus aureus [29],4
same,Activity,Cell membrane [30],Dose-dependent-effect
same,Activity,Cell membrane [31],Active
same,Activity,Staphylococcus aureus [32],64.56%
same,Activity,Staphylococcus aureus [33],Dose-dependent-effect
same,fold change (FC),Staphylococcus aureus [34],4.34
same,Activity,Staphylococcus aureus [35],Dose-dependent-effect
same,Activity,Staphylococcus aureus [36],Dose-dependent-effect
same,deltaH,Calf thymus DNA [37],-0.223 kcal/mol
same,deltaS,Calf thymus DNA [38],99.2 J/mol.K
same,K,Calf thymus DNA [39],2.21 10^5/M
same,MIC,Staphylococcus aureus [40],0.5 µg/mL
